# Reference: PubChem BioAssay (NCI)
#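 Protocol summary: plate cells (96-well), add compound at 5 concentrations, incubate 48 h, interpolate endpoints linearly. GI50 = concentration required for 50% inhibition of growth. At the TGI there is no net growth.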
# Tested on: UACC-257 melanoma
# Test: growth of human tumour cells (NCI), 48 h
Compound,GI50 [µM],TGI [µM]
C=CCO[C@H]1CO[C@H]2[C@@H]1OC[C@@H]2Oc1ccc(Nc2ccnc(Nc3ccc(O[C@H]4CO[C@H]5[C@@H]4OC[C@@H]5OCC=C)c(Cl)c3)n2)cc1Cl,1.83,3.69
OCc1cc2ccccc2c2c3c(ccc12)OCO3,28.1,82.3
CC1(C(=O)O)CCC[C@@]2(C)C1CC[C@@]1(C)c3cocc3CCC21 (stereo partly drawn),–,> 100
CCn1c(C)nn2c(=O)c3ccccc3nc2c1=O,–,> 100
CCOC(=O)CCC1(C(=O)OCC)CCCCC1=O (stereo not drawn),–,> 100
CCOC1Oc2ccccc2C(=O)/C1=C/Nc1ccc(C(C)=O)cc1 (stereo not drawn),19.7,46.9
Cc1nc2c(ccc3ncccc32)[nH]1,–,> 100
CCN1CCN(Cc2ccc(NC(=O)c3cccc(C#Cc4cccc5[nH]nc(N)c45)c3)cc2C(F)(F)F)CC1,1.05,2.82
Cc1cc(N(CCC#N)CCC#N)ccc1N=Nc1ccc(S(N)(=O)=O)cc1,–,> 100
CC(C)=CCC\C(C)=C/C=C/C(C)=C\C=C\C(C)=C/C=C/C=C(C)\C=C\C=C(C)/C=C/C=C(/C)CCC=C(C)C,–,> 100
CC(=O)[CH-]C(=O)c1ccccc1.CC(=O)[CH-]C(=O)c1ccccc1.CN(C)c1ccc([O-])cc1.CN(C)c1ccc([O-])cc1.Cl.[Ti+4],> 31.6,> 31.6
CC1(C)C(=O)/C=C\C(=O)C(C)(C)C2=CC=C(O2)C(C)(C)C(=O)/C=C\C(=O)C(C)(C)C2=CC=C1O2,–,> 100
COC(=O)CC[N+]1=CCC(c2ccccc2)(c2ccccc2)O1,–,> 100
CCN(CC)N=Nc1c(C(N)=O)n[nH]c1C,–,> 100
OCC1=CC(NC2CC(CO)C(O)C(O)C2O)C(O)C(O)C1O (stereo not drawn),–,> 100
Nc1ccccc1S(=O)(=O)N(CC(=O)O)c1ccccc1,–,> 100
CCOC(=O)C(C)(C)Oc1ccc2c(-c3ccccc3)cc(=O)oc2c1,–,75.5
Cc1cc(NS(=O)(=O)c2ccc(Nc3c4ccccc4nc4c(C(=O)N5CCN(CCOS(C)(=O)=O)CC5)cccc34)cc2)no1,–,> 100
NC1=NCCC1(c1ccccc1)c1ccccn1 (stereo not drawn),–,> 100
CNC(=S)OCCC(C)CCCC(C)C (stereo not drawn),–,30.1
COC1/C=C/OC2(C)Oc3c(C)c(O)c4c(O)c(c(/C=N/Nc5ccc([N+](=O)[O-])cc5[N+](=O)[O-])c(O)c4c3C2=O)NC(=O)C(C)=C/C=C/C(C)C(O)C(C)C(O)C(C)C(OC(C)=O)C1C (stereo not drawn),1.48,5.58
Cc1cnc(NCCCN(C)C)c2c1[nH]c1ccc3cc(O)ccc3c12,–,11.5

# Tested on: KM12 colon
# Test: growth of human tumour cells (NCI), 48 h
Compound,GI50 [µM],TGI [µM]
Nc1nc(-n2c(-c3ccccc3)nc3c(Br)cc(Br)cc3c2=O)nnc1-c1cccc(Cl)c1Cl,3.29,63.4
Cc1c(C(=O)C/C(=N/NC(=O)c2ccccc2O)C(=O)Nc2ccccc2C(C)C)[n+](=O)c2ccccc2n1[O-],–,> 100
CCCCCCCCCCCC(=O)OCCOCCOCCOCCOCCOCc1ccccc1,–,> 100
CCCC1C(=O)CCc2c(OC)ccc(OC)c21 (stereo not drawn),–,> 100
O=C(CCc1nc(=S)[nH][nH]1)Nc1cc(Cl)c(Cl)cc1Cl,–,> 100
COc1ccc(CC2c3cc4c(cc3CCN2C)OCO4)c(C=O)c1OC (stereo not drawn),–,> 100
O=C(Nc1nc2ccc([N+](=O)[O-])cc2s1)C(=O)C(C1OC(=O)c2ccccc21)[N+](=O)[O-] (stereo not drawn),–,> 100
Cc1cc(-c2nc(C(=O)Nc3cc4oc(N5CCOCC5)nc4nc3N3CC[C@@H](O)C3)co2)ccn1,3.46,> 100
COC(=O)C1(C(C)C)CCc2c(OC)ccc(OC)c2C1=O (stereo not drawn),–,> 100
Cc1ccc(Cl)c2c(N=Nc3ccccc3[N+](=O)[O-])c(O)[nH]c12,–,> 100
FC(F)(F)c1cccc(Nc2nc(-c3ccccc3)nc3ncccc23)c1,4.3,> 100
COC(=O)c1ccccc1NC(=O)C(=O)Cc1nc2c3c(ccc2[nH]c1=O)C(=O)c1ccccc1C3=O,–,> 100
Cc1ccc(S(=O)(=O)OC[C@@H]2CO2)cc1,–,> 100
O=C(CC(=O)c1cccc2ccccc12)C(=O)Nc1ccc(Cl)cc1,–,> 100
C=CCO[C@H]1CO[C@H]2[C@@H]1OC[C@@H]2Oc1ccc(Nc2ccnc(Nc3ccc(O[C@H]4CO[C@H]5[C@@H]4OC[C@@H]5OCC=C)c(Cl)c3)n2)cc1Cl,1.65,3.08
OCc1cc2ccccc2c2c3c(ccc12)OCO3,35,137
CC1(C(=O)O)CCC[C@@]2(C)C1CC[C@@]1(C)c3cocc3CCC21 (stereo partly drawn),–,> 100
CCn1c(C)nn2c(=O)c3ccccc3nc2c1=O,–,> 100
COc1cnc2c(c1)C(=O)c1c-2n(CCCN2CCOCC2)c(=O)c2cc(F)ccc12,0.316,> 100
